# In patent publication US20180291070A1, “PEPTIDES, AND USES THEREOF” (priority 2015, published 2018):
# Like-named read-outs stand apart in the source and are kept apart here. Ends that are not written are not given here.
# Legend:
# A. baumannii ATCC 19606 = experiment: antibacterial activity testing in solid media (disk, Mueller-Hinton plates); assay type: cell-based, Acinetobacter baumannii; design: key to Inhibition zone diameter (mm): NI—No Inhibition of growth; conditions: for Inhibition zone diameter (mm) / zone of inhibition at 64 µg/mL: 10 μL at 64 μg/mL on disk; for zone of inhibition at 64 µg/mL: Acinetobacter baumannii, read-out: Inhibition zone diameter (mm)
# Description: (§1) Blank disks were placed in the plates and 10 μL of each compound (at 64 μg/mL—maximum concentration tested) added.
# (§2) After incubation period results were registered and plates photographed.
# E. coli ATCC 25922 = experiment: microbe, parasite or virus in culture; assay type: cell-based; conditions: for zone of inhibition at 64 µg/mL: Escherichia coli, 10 μL at 64 μg/mL on disk, read-out: Inhibition zone diameter (mm)
# Description: as §1, §2
# MRSA ATCC 43300 = experiment: microbe, parasite or virus in culture; assay type: cell-based, Methicillin-Resistant Staphylococcus aureus; conditions: for zone of inhibition at 64 µg/mL: Staphylococcus aureus, 10 μL at 64 μg/mL on disk, read-out: Inhibition zone diameter (mm)
# Description: as §1, §2
# GLUT4 = experiment: GLUT4myc translocation in L6 myotubes; assay type: cell-based
# Excerpt: We determined the effect of six synthetic peptides (SP1-6) and four peptide compositions on in vitro GLUT4 translocation using the L6 rat skeletal muscle cell line. A clone of the L6 cell line containing overexpression of GLUT4 tagged with a c-myc epitope (courtesy of Prof. Amira Klip, Hospital for Sick Children, Toronto) was used to investigate the efficacy of each synthetic peptide and peptide composition for effects on GLUT4 translocation in a dose-response design.
# L6-GLUT4myc cells were grown in 10% FBS and 2 μg/ml blasticidin. Cells were grown for 48-72 hours before being seeded in 24-well plates at 15,000 cells per well in 2% FBS and allowed to differentiate for 6 to 8 days prior to experimentation.
# L6-GLUT4myc cells were serum-starved for three hours prior to incubation with 100 nM of insulin for 30 mins, or 200, 20, 2.0 and 0.2 μM of SP, and 2, 1, 0.5 and 0.25 mg/ml of peptide composition for 3 hours respectively. A 3 hour incubation period was selected based on previous findings identifying that incubation with branch chain amino acid containing di-peptides for 3 hours increases glucose uptake in L6 myotubes 1. Treatments were staggered in order to determine GLUT4myc translocation at the same time point.
# The quantity of myc-tagged GLUT4 at the cell surface was measured by antibody-coupled colorimetric assay. Briefly, after incubation with either insulin for 30 mins or synthetic peptide or peptide composition for 3 hours respectively, L6-GLUT4myc cells were fixed via incubation with 3% paraformaldehyde (PFA). A 0.1 M glycine solution was then added to quench PFA and cells were blocked with 5% goat serum. The myotube monolayer was exposed to anti-myc antibody and then incubated with peroxidase conjugated donkey anti-mouse IgG. 1 mL of o-phenylenediamine dihydrochloride (OPD) reagent was added to each well and this reaction was stopped by adding […] of 3 M HCL. To determine GLUT4 translocation to cell surface, a measured aliquot of each condition was determined spectrophotometrically on a plate reader using absorbance at 492 nm.
# In addition to an untreated control, 100 nM insulin was utilised to stimulate a maximal GLUT4 translocation response i.e. a positive control in each experiment. […] Treatments were staggered so that all conditions (untreated, insulin and sample) were processed at the same time-point.
# [1] = tested on: keratinocytes of the basal layer of the epidermis; experiment: Ki67 immunohistochemistry (mitotic index) in skin explants; assay type: cell-based, Human
# Description: (§3) Skin explants were prepared from abdominal plastic surgery. Some explants were delipidated with alcohol to obtain a dehydrated skin.
# (§4) These explants were maintained in maintenance medium supplied by the provider Biopredic International for 5 days. Test items are applied twice per day with 5 μL per explant.
# (§5) For each time of analysis (D1 and D5), histologies on delipidated explants, treated explants with test items, the DMSO 0.3% control and water control, are performed.
# (§6) After receipt in the laboratory, each skin explant in the maintenance medium is delipidated with 5 μL alcohol during 3 hours.
# (§7) After 3 hours, all skin explants are treated two per day with test items, and they are incubated at 37° C.+/−2° C., 5% CO2 for 1 day or 5 days.
# Epithelial proliferation was analyzed by immunohistochemistry using anti-Ki67 antibody. […] Counting the number of labeled cells (keratinocytes of the basal layer of the epidermis) is performed and provides the total number of basal cells to calculate the % of labeled cells.
# The results of the immunohistochemical analysis of Ki67 are reported in Table 5 and expressed as % of labelled at the basal layer of the epidermis. The Error! […] Immunohistochemical analysis of mitotic activity is shown in annex 4 with a reminder of the average for each analysed conditions.
# TNF-α = TNF-α secretion by LPS-stimulated THP-1 differentiated macrophages (Biolegend ELISA); assay type: cell-based, human; conditions: THP-1 differentiated macrophages treated 24 hrs. prior to LPS stimulation
# Description: TNF-α is secreted by macrophages in response to stimulation by endotoxins such as lipopolysaccharides (LPS). TNF-α is thought to be involved in systemic inflammation and dysregulation of TNF-α production is thought to be involved in many diseases. The Biolegend assay is a sandwich ELISA kit that is designed for the accurate quantitation of human TNF-α from cell culture supernatant, serum or plasma.
# THP-1 monocytes were seeded in a 96 well plate at 10,000 cells per well in RPMI containing 10% fetal calf serum (FCS), 1% Pen/strep, 1% L-glutamine, 100 nM PMA and allowed to differentiated for 72 h prior to experimentation.
# Following differentiation the cells were incubated with 100 ng/ml, 10 ng/ml or 1 ng/ml synthetic peptide for 24 h respectively.
# Following treatment the cells were stimulated with 10 ng/ml LPS for 5 h and the quantity of TNF-α in the supernatant determined using the Biolegend assay ELISA kit.
# Results were calculated as a percentage of the untreated control. An increase in optical density reading indicates greater quantity of TNF-α release into cell culture supernatant.
# All experiments were prepared in duplicate on three plates (6 wells/conditions). Significance was calculated using Students t-test (*p<0.05 compared to control, **p<0.01 compared to control, *** p<0.001 compared to control).
# [2] = tested on: elastic fibers of the dermis; experiment: morphometric quantification of elastic fibers in skin explants; assay type: cell-based, Human; conditions: for Morphometric quantification of elastic fibers in the middle dermis (%) / Morphometric quantification of elastic fibers in the superficial dermis (%): applied twice per day, 5 μL per explant
# Description: as §3, §4, §5, §6, §7
# The immunohistochemical staining intensity in the elastic fibers is evaluated using a semi-quantitative histological score.
# The percentage area taken up by elastic fibers in the dermis was calculated in the dermis and the average superficial dermis. Results are presents in Table 4, FIG. 2 and FIG. 3.
# [3] = final result, not at the levels of susceptibility
molecule,measurement,setting,value
LNSQKFPILNLVQLSATR [I_87_SF],Inhibition zone diameter (mm),A. baumannii ATCC 19606; Rep 1,NI
same,Inhibition zone diameter (mm),A. baumannii ATCC 19606; Rep 2,NI
same,Inhibition zone diameter (mm),A. baumannii ATCC 19606; Rep 3,NI
same,inhibitory activity,A. baumannii ATCC 19606; final result,No activity
same,inhibition zone,E. coli ATCC 25922; ATCC 25922,9-10 mm
same,inhibitory activity,E. coli ATCC 25922; [3],some inhibitory activity
same,inhibition zone,MRSA ATCC 43300; agar plates,18 mm
same,inhibitory activity,MRSA ATCC 43300; [3],some inhibitory activity
"DTFYNAAWDPSNR [SP1, reference compound]",cell viability,"GLUT4; 200 μM, L6-GLUT4myc cells",poor cell viability
"O=C(O)c1cn(C2CC2)c2cc(N3CCNCC3)c(F)cc2c1=O [CIP, Ciprofloxacin]",zone of inhibition at 64 µg/mL,"A. baumannii ATCC 19606; ATCC19606, Rep 1",27 mm
same,zone of inhibition at 64 µg/mL,"A. baumannii ATCC 19606; ATCC19606, Rep 2",28 mm
same,zone of inhibition at 64 µg/mL,"A. baumannii ATCC 19606; ATCC19606, Rep 3",27 mm
same,zone of inhibition at 64 µg/mL,"E. coli ATCC 25922; ATCC25922, Rep 1",42 mm
same,zone of inhibition at 64 µg/mL,"E. coli ATCC 25922; ATCC25922, Rep 2",40 mm
same,zone of inhibition at 64 µg/mL,"E. coli ATCC 25922; ATCC25922, Rep 3",42 mm
same,zone of inhibition at 64 µg/mL,MRSA ATCC 43300; Rep 1,27 mm
same,zone of inhibition at 64 µg/mL,MRSA ATCC 43300; Rep 2,28 mm
same,zone of inhibition at 64 µg/mL,MRSA ATCC 43300; Rep 3,29 mm
"VLDLAIPVNRPGQL [SP2, glucose transport promoting fragment of Pea Protein P13918, Section C]",GLUT4 translocation,"GLUT4; 0.2-2 μM, 3 hours",trend for SP2 to increase GLUT4 translocation
same,stimulatory effect on skeletal muscle GLUT4 translocation,GLUT4; conclusion of the experiment,trend for stimulatory effect
HPVAITASSNLNLLGFG [0723.02],% of Ki67 positive cells in the basal layer of the epidermis,[1]; D1,19.61%
same,% of Ki67 positive cells in the basal layer of the epidermis,[1]; D5,6.73%
same,TNF-α secretion reduced vs. untreated cells,TNF-α,80%
same,Morphometric quantification of elastic fibers in the middle dermis (%),[2]; D1,11.75%
same,Morphometric quantification of elastic fibers in the superficial dermis (%),[2]; D1,6.09%
same,elastic fibers in the middle dermis compared to the water control,[2]; D5,increase
same,Morphometric quantification of elastic fibers in the middle dermis (%),[2]; D5,9.08%
same,Morphometric quantification of elastic fibers in the superficial dermis (%),[2]; D5,7.59%
same,elastic fibers in the middle dermis compared to control water,[2]; day 1,increase doubled
insulin [reference compound],average increase in cell surface GLUT4 translocation compared to untreated control,"GLUT4; 100 nM, 30 mins",1.72 fold
